The values that follow come from patent US6706740B2, “Fungicidal heterocyclic aromatic amides and their compositions, methods of use and preparation” (Dow AgroSciences LLC, priority 1999, dated 2004).

Experiment [1] concerns Stagonospora nodorum (Leptosphaeria nodorum—LEPTNO). Description: In vitro fungal growth inhibition, Stagonospora nodorum (LEPTNO). The following applies: Leptosphaeria, read-out: LEPTNO in vitro Growth Inhibition. The class given is cell-based.
The test system of experiment [2] is Septoria tritici—SEPTTR. As to the kind of experiment: Leaf Blotch of Wheat, in vivo whole plant, 24 Hour Protectant. The following applies: control of fungal infection vs untreated plants; for pest or weed control at 100 ppm: Zymoseptoria tritici, 24 h, read-out: SEPTTR in vivo 1 Day Protectant.
Experiment [3] deals with Mycosphaerella graminicola (Septoria tritici—SEPTTR). As to the kind of experiment: In vitro fungal growth inhibition, Mycosphaerella graminicola (SEPTTR). Type of experiment: cell-based. The following applies: Zymoseptoria tritici, read-out: SEPTTR in vitro Growth Inhibition.
Experiment [4] deals with Puccinia recondita—PUCCRT. Description: Brown Rust of Wheat, in vivo whole plant, 24 Hour Protectant. The following applies: control of fungal infection vs untreated plants; for pest or weed control at 100 ppm: Puccinia, read-out: PUCCRT in vivo 1 Day Protectant.
In experiment [5] the test system is Erysiphe graminis—ERYSGT. Description: Powdery Mildew of Wheat, in vivo whole plant, 24 Hour Protectant. The settings on record: Erysiphe, control of fungal infection vs untreated plants, read-out: ERYSGT in vivo 1 Day Protectant.
In experiment [6] the test system is Magnaporthe grisea (Pyricularia oryzae—PYRIOR). Description: microbe, parasite or virus in culture. Type of experiment: cell-based. The settings on record: Pyricularia oryzae, read-out: PYRIOR in vitro Growth Inhibition.
For experiment [7], the system named is Phytophthora infestans—PHYTIN. Description: whole plant or invertebrate. Type of experiment: in vivo. The settings on record: Phytophthora, in Solanum lycopersicum, 24 h, read-out: PHYTIN in vivo 1 Day Protectant.
In experiment [8] the test system is Phytophthora infestans (PHYTIN). As to the kind of experiment: microbe, parasite or virus in culture. The class given is cell-based. The following applies: Phytophthora infestans, read-out: PHYTIN in vitro Growth Inhibition.
The test system of experiment [9] is Rhizoctonia solani (RHIZSO). Description: microbe, parasite or virus in culture. Type of experiment: cell-based. The following applies: Rhizoctonia solani, read-out: RHIZSO in vitro Growth Inhibition.
Experiment [10] deals with Leptosphaeria nodorum—LEPTNO. As to the kind of experiment: Glume Blotch of Wheat, in vivo whole plant, 24 Hour Protectant. The settings on record: control of fungal infection vs untreated plants; for pest or weed control at 100 ppm: Leptosphaeria, read-out: LEPTNO in vivo 1 Day Protectant.
Experiment [11] relates to Ustilago maydis (USTIMA). As to the kind of experiment: microbe, parasite or virus in culture. Type of experiment: cell-based. The settings on record: Mycosarcoma maydis, read-out: USTIMA in vitro Growth Inhibition.
Setting [12] is: 100 ppm spray, wheat, 24 hour protectant.
The mark [13] stands for this setting: 100 ppm spray, 24 hour protectant, wheat.
Where [14] appears, read: wheat plants sprayed at 100 ppm, inoculated after 24 hours.

Read-outs that look alike come from different tables or passages of the source.

One may read the inhibition as the change of the read-out against control, counted positive when it falls. With `COc1ccnc(C(=O)Nc2cccc(Oc3ccc(Cl)cc3)c2)c1O` [Compound 440], the inhibition at 25 ppm was > 80% in experiment [1] (25 ppm in growth medium); > 80% in experiment [3] (25 ppm in growth medium); > 80% in experiment [6]; < 80% in [8]; < 80% in [9]; < 80% in experiment [11]. Besides, the pest or weed control at 100 ppm in experiment [2] (setting [12]) is 25 to 74%; in experiment [4] (setting [12]) it was 25 to 74%; in experiment [5] (setting [12]), < 25%; in experiment [7] it was < 25%. Also, the “LEPTNO in vivo 1 Day Protectant” value in experiment [10] (setting [12]) is “+ +”.
With `CC1(C)CC(NC(=O)c2ncccc2O)CC(C)(C2CC2)C1` (stereo not drawn) [Compound 204], the inhibition at 25 ppm in experiment [1] (25 ppm in growth medium), in experiment [3] (25 ppm in growth medium), in experiment [6], in [8], in experiment [9] and in experiment [11] was < 80% in each case. Moreover, the pest or weed control at 100 ppm in [2] (setting [13]) was 25 to 74%; in experiment [4] (setting [13]), < 25%; in experiment [5] (setting [13]) it was < 25%; in [7] it was < 25%; in experiment [10] (setting [13]), < 25%.
With `O=C(Nc1ccccc1Oc1cccc(C(F)(F)F)c1)c1nc(Br)ccc1O` [Compound 492], the inhibition at 25 ppm in experiment [1] (25 ppm in the growth medium), in experiment [3] (25 ppm in the growth medium), in experiment [6], in [8], in experiment [9] and in [11] was < 80% throughout. In addition, the pest or weed control at 100 ppm in experiment [2] (setting [14]) was 25 to 74%; in experiment [4] (setting [14]), < 25%; in experiment [5] (setting [14]), < 25%; in experiment [7] it was < 25%; in experiment [10] (setting [14]), < 25%.
As to `COc1ccnc(C(=O)NC(COC(=O)CCc2ccccc2)C(=O)OC(C)COC(=O)C(C)C)c1O` (stereo not drawn) [Compound 358], the inhibition at 25 ppm in [1] (25 ppm in growth medium), in experiment [3] (25 ppm in growth medium), in experiment [6], in [8], in experiment [9] and in experiment [11] was < 80% each time. In addition, the pest or weed control at 100 ppm in experiment [2] (setting [12]) was 25 to 74%; in experiment [4] (setting [12]), 25 to 74%; in experiment [5] (setting [12]), < 25%; in [7] it was < 25%; in experiment [10] (setting [12]), 25 to 74%.
In the case of `O=C(Nc1ccc(Oc2cccc(C(F)(F)F)c2)cc1)c1nc(Br)ccc1O` [Compound 498], the inhibition at 25 ppm in [1] (25 ppm in the growth medium), in [3] (25 ppm in the growth medium), in experiment [6], in experiment [8], in experiment [9] and in experiment [11] was < 80% each time. The pest or weed control at 100 ppm in experiment [2] (setting [14]) is 25 to 74%; in [4] (setting [14]), 25 to 74%; in experiment [5] (setting [14]), < 25%; in [7] it was < 25%; in experiment [10] (setting [14]) it was < 25%.
As to `COc1ccnc(C(=O)NCC#Cc2ccccc2)c1O` [Compound 240], the inhibition at 25 ppm in experiment [1] (25 ppm in growth medium), in experiment [3] (25 ppm in growth medium), in experiment [6], in experiment [8], in experiment [9] and in experiment [11] was < 80% in each case. Besides, the “SEPTTR in vivo 1 Day Protectant” value in experiment [2] (setting [13]) is listed as “+ +”. Moreover, the pest or weed control at 100 ppm in experiment [4] (setting [13]) is < 25%; in experiment [5] (setting [13]), < 25%; in experiment [7] it was < 25%; in [10] (setting [13]), 25 to 74%.
`COc1ccnc(C(=O)NC2CC(C)(C)/C=C\CC(C)(C)C2)c1OC(C)=O` (stereo not drawn) [Compound 580]: the inhibition at 25 ppm in experiment [1] (25 ppm in the growth medium), in [3] (25 ppm in the growth medium), in experiment [6], in experiment [8], in experiment [9] and in experiment [11] was < 80% throughout. Besides, the pest or weed control at 100 ppm in experiment [2] (setting [14]) is 25 to 74%; in experiment [4] (setting [14]) it was 25 to 74%; in experiment [5] (setting [14]), < 25%; in experiment [7], < 25%. In addition, in experiment [10] (setting [14]), the “LEPTNO in vivo 1 Day Protectant” value is listed as “+ +”.
Take `COc1ccnc(C(=O)NC2CCC(Sc3ccccc3)CC2)c1O` (stereo not drawn) [Compound 275]: the inhibition at 25 ppm is > 80% in [1] (25 ppm in growth medium); > 80% in experiment [3] (25 ppm in growth medium); < 80% in experiment [6]; < 80% in experiment [8]; > 80% in experiment [9]; < 80% in experiment [11]. Further, the pest or weed control at 100 ppm in [2] (setting [13]) is 25 to 74%; in [4] (setting [13]), < 25%; in [5] (setting [13]), < 25%; in [7], < 25%; in experiment [10] (setting [13]), 25 to 74%.
Take `COc1ccnc(C(=O)N[C@@H](COCc2ccccc2)C(=O)O[C@@H](C)[C@H](OC(=O)C(C)C)[C@@H](Cc2ccccc2)C(=O)OCc2ccccc2)c1O` [Compound 342]: the inhibition at 25 ppm in experiment [1] (25 ppm in growth medium) was < 80%; in experiment [3] (25 ppm in growth medium), < 80%; in experiment [6], < 80%; in [8], < 80%; in experiment [9], < 80%; in experiment [11], > 80%. Besides, the pest or weed control at 100 ppm in experiment [2] (setting [12]) was 25 to 74%; in [5] (setting [12]), 25 to 74%; in [7], < 25%; in experiment [10] (setting [12]) it was 25 to 74%. The “PUCCRT in vivo 1 Day Protectant” value in [4] (setting [12]) is given as “+ +”.
As to `COc1ccnc(C(=O)N[C@H]2[C@@H](OC(C)=O)O[C@H](COC(C)=O)[C@@H](OC(C)=O)[C@@H]2OC(C)=O)c1O` [Compound 335], the inhibition at 25 ppm in [1] (25 ppm in growth medium), in [3] (25 ppm in growth medium), in experiment [6], in experiment [8], in experiment [9] and in experiment [11] was < 80% throughout. Besides, the pest or weed control at 100 ppm in [2] (setting [12]) is < 25%; in experiment [4] (setting [12]), < 25%; in [5] (setting [12]) it was < 25%; in experiment [7], 25 to 74%; in experiment [10] (setting [12]), 25 to 74%.
Turning to `COc1ccnc(C(=O)NC2CC(C)(C)CC(C)(C#N)C2)c1OC(C)=O` (stereo not drawn) [Compound 574], the inhibition at 25 ppm in experiment [1] (25 ppm in the growth medium), in [3] (25 ppm in the growth medium), in experiment [6], in experiment [8], in [9] and in experiment [11] was < 80% in each case. Further, the pest or weed control at 100 ppm in experiment [2] (setting [14]) was 25 to 74%; in experiment [4] (setting [14]), < 25%; in experiment [5] (setting [14]), < 25%; in experiment [7], < 25%; in experiment [10] (setting [14]), 25 to 74%.
As to `COc1ccnc(C(=O)Nc2ccc(C(=O)Oc3ccc(C(F)(F)F)cc3)cc2)c1O` [Compound 452], the inhibition at 25 ppm in experiment [1] (25 ppm in growth medium), in [3] (25 ppm in growth medium), in experiment [6], in experiment [8], in [9] and in experiment [11] was < 80% in each case. Besides, the pest or weed control at 100 ppm in [2] (setting [12]) is 25 to 74%; in experiment [4] (setting [12]), < 25%; in experiment [5] (setting [12]) it was < 25%; in experiment [7], < 25%; in experiment [10] (setting [12]), 25 to 74%.
